One assay has as its target HIV-1 protease (Human immunodeficiency virus type 1 group M subtype B, UniProt P04585). Nature of the assay: biochemical. The conditions noted are these: Table 12; HIV-1 protease; read-out: Ki.
In the next assay the test system is HIV-1 (strain IIIB). The assay is described as follows: microbe, parasite or virus in culture. The format is cell-based. The conditions noted are these: anti-viral potency in MT-4 cells, read-out: IC50.
Where [1] appears, read: Human immunodeficiency virus 1, IIIB, MT4, Table 12.

SMILES strings stand for the structures. Like-named read-outs stand apart in the source and are kept apart here. Some results are limits rather than exact numbers.

For the compound `COc1ccc(S(=O)(=O)N(CCCCC2(C)OCCO2)C[C@@H](O)[C@H](Cc2ccccc2)NC(=O)OC(C)(C)C)cc1` [Compound 204, tert-Butyl N-((1S,2R)-1-benzyl-2-hydroxy-3-[(4-methoxyphenyl)sulfonyl][4-(2-methyl-1,3-dioxolan-2-yl)butyl]aminopropyl)carbamate], the Ki on HIV-1 protease fell in the range of 1 to 10 nM. Moreover, the IC50 in the assay with HIV-1 (strain IIIB) (Table 12) fell in the range of 500 to 1000 nM.

Take `CNc1cccc(S(=O)(=O)N(C[C@@H](O)[C@H](Cc2ccccc2)NC(=O)O[C@H]2CO[C@H]3OCC[C@H]32)CC(C)(C)CCCCN)c1` [Compound 241, (3R,3aS,6aR)hexahydrofuro[2,3-b]furan-3-yl N-[(1S,2R)-3-((6-amino-2,2-dimethylhexyl)[3-(methylamino)phenyl]sulfonylamino)-1-benzyl-2-hydroxypropyl]carbamate]: the Ki on HIV-1 protease is less than 1 nM. Also, in the assay with HIV-1 (strain IIIB) (setting [1]), the IC50 lay in the range of 100 to 500 nM.

Turning to `COc1ccc(S(=O)(=O)N(C[C@@H](O)[C@H](Cc2ccccc2)NC(=O)C(C)CS(C)(=O)=O)CC(C)(C)CCC#N)cc1` (stereo partly drawn) [Compound 22, 1N-(3-Methylsulfonylisobutyryl)-(1S,2R)-1-benzyl-3-(4-cyano-2,2-dimethylbutyl)[4-methoxyphenylsulfonyl]amino-2-hydroxypropyl amine], the Ki at HIV-1 protease was less than 1 nM. The IC50 with HIV-1 (strain IIIB) (Table 12) is 100 to 500 nM.

Regarding `COc1ccc(S(=O)(=O)N(CC(O)[C@H](Cc2ccccc2)NC(=O)OC2COC3OCCC23)CC(C)(C)CCCC(C)=O)cc1` (some centres unmarked) [Compound 259], at HIV-1 protease, the Ki was less than 1 nM. Moreover, in the assay on HIV-1 (strain IIIB) (setting [1]), the IC50 is not above 100 nM.

On to `COC(=N[N+](=O)[O-])NCCC(C)(C)CN(CC(O)C(Cc1ccccc1)NC(=O)OC1COC2OCCC12)S(=O)(=O)c1ccc(OC)cc1` (centres unmarked) [Compound 223], for which, at HIV-1 protease, the Ki was less than 1 nM. In addition, in the assay with HIV-1 (strain IIIB) (setting [1]), the IC50 is not above 100 nM.

Consider `CC(=O)CCC(C)(C)CN(CC(O)[C@H](Cc1ccccc1)NC(=O)OC1COC2OCCC12)S(=O)(=O)c1ccc2c(c1)OCCO2` (stereo partly drawn) [Compound 252, (3R,3aS,6aR)-Hexahydrofuro[2,3-b]furan-3-yl N-((1S,2R)-3-(1,4-benzodioxan-6-sulfonyl)(2,2-dimethyl-5-oxohexyl)amino-1-benzyl-2-hydroxypropyl)carbamate], for which the Ki on HIV-1 protease was less than 1 nM. In the assay on HIV-1 (strain IIIB) (setting [1]), the IC50 was not above 100 nM.

`COc1ccc(S(=O)(=O)N(CC(O)C(Cc2ccccc2)NC(=O)OC2COC3OCCC23)CC(C)(C)CCNC(=O)N2CCOCC2)cc1` [Compound 236, (3R,3aS,6aR)hexahydrofuro[2,3-b]furan-3-yl N-((1S,2R)-1-benzyl-3-2,2-dimethyl-4-[(morpholinocarbonyl)amino]butyl[(4-methoxyphenyl)sulfonyl]amino-2-hydroxypropyl)carbamate and (3S,3aR,6aS)hexahydrofuro[2,3-b]furan-3-yl N-((1S,2R)-1-benzyl-3-2,2-dimethyl-4-[(morpholinocarbonyl)amino]butyl[(4-methoxyphenyl)sulfonyl]amino-2-hydroxypropyl)carbamate]: the Ki on HIV-1 protease was less than 1 nM. Further, the IC50 with HIV-1 (strain IIIB) (setting [1]) was not above 100 nM.

`CNc1cccc(S(=O)(=O)N(CC(O)C(Cc2ccccc2)NC(=O)OC2COC3OCCC23)CC(C)(C)CCCC#N)c1` (centres unmarked) [Compound 38]: the Ki at HIV-1 protease is less than 1 nM. Also, the IC50 in the assay with HIV-1 (strain IIIB) (setting [1]) was not above 100 nM.

As to `CNc1cccc(S(=O)(=O)N(C[C@@H](O)[C@H](Cc2ccccc2)NC(=O)O[C@H]2CO[C@H]3OCC[C@H]32)CC(C)(C)CCCCNC(=O)OC)c1` [Compound 246, (3R,3aS,6aR)hexahydrofuro[2,3-b]furan-3-yl N-[(1S,2R)-1-benzyl-2-hydroxy-3-(6-[(methoxycarbonyl)amino]-2,2-dimethylhexyl[3-(methylamino)phenyl]sulfonylamino)propyl]carbamate], the Ki at HIV-1 protease was less than 1 nM. For the same compound, the IC50 with HIV-1 (strain IIIB) (setting [1]) was not above 100 nM.

Consider `C/C(CCC(C)(C)CN(CC(O)[C@H](Cc1ccccc1)NC(=O)OC1COC2OCCC12)S(=O)(=O)c1ccc2c(c1)OCO2)=N\O` (stereo partly drawn) [Compound 260, (3R,3aS,6aR)-Hexahydrofuro[2,3-b]furan-3-yl N-((1S,2R)-1-benzyl-3-(2,2-dimethyl-5-hydroxyiminohexyl)[(3,4-methylenedioxyphenyl)sulfonyl]amino-2-hydroxypropyl)carbamate], for which the Ki at HIV-1 protease was less than 1 nM. Moreover, the IC50 with HIV-1 (strain IIIB) (setting [1]) was not above 100 nM.

With `CNC(=O)CNC(=O)NCCC(C)(C)CN(CC(O)C(Cc1ccccc1)NC(=O)OC1COC2OCCC12)S(=O)(=O)c1ccc(OC)cc1` [Compound 228, (3R,3aS,6aR)hexahydrofuro[2,3-b]furan-3-yl N-(1S,2R)-1-benzyl-2-hydroxy-4-[(4-methoxyphenyl)sulfonyl]-6,6-dimethyl-10,13-dioxo-4,9,11,14-tetraazapentadec-1-ylcarbamate and (3S,3aR,6aS)hexahydrofuro[2,3-b]furan-3-yl N-(1S,2R)-1-benzyl-2-hydroxy-4-[(4-methoxyphenyl)sulfonyl]-6,6-dimethyl-10,13-dioxo-4,9,11,14-tetraazapentadec-1-ylcarbamate], the Ki on HIV-1 protease was less than 1 nM. The IC50 in the assay on HIV-1 (strain IIIB) (setting [1]) was in the range of 100 to 500 nM.

On to `COC(=O)CCC(C)(C)CN(C[C@@H](O)[C@H](Cc1ccccc1)NC(=O)OC1COCOC1)S(=O)(=O)c1ccc(OC)cc1` [Compound 274, {(1S,2R)-1-Benzyl-3-[(4-carbomethoxy-2,2-dimethyl-butyl)-(4-methoxy-benzenesulfonyl)-amino]-2-hydroxy-propyl}-carbamic acid[1,3]dioxan-5-yl ester], for which the Ki at HIV-1 protease is less than 1 nM. Moreover, the IC50 with HIV-1 (strain IIIB) (setting [1]) lay within 100 to 500 nM.

Regarding `COc1ccc(S(=O)(=O)N(CC(O)[C@H](Cc2ccccc2)NC(=O)OC2COC3OCCC23)CC(C)(C)CCOC(N)=O)cc1` (stereo partly drawn) [Compound 235, (3R,3aS,6aR)-Hexahydrofuro[2,3-b]furan-3-yl N-((1S,2R)-1-benzyl-3-(4-carbamoyloxy-2,2-dimethylbutyl)[(4-methoxyphenyl)sulfonyl]amino-2-hydroxypropyl)carbamate], the Ki on HIV-1 protease was less than 1 nM. Moreover, in the assay on HIV-1 (strain IIIB) (setting [1]), the IC50 was not above 100 nM.

In the case of `CC(C)(CCC#N)CN(C[C@@H](O)[C@H](Cc1ccccc1)NC(=O)OC1COCOC1)S(=O)(=O)c1ccc2c(c1)OCO2` [Compound 36, {(1S,2R)-3-[(Benzo[1,3]dioxole-5-sulfonyl)-(4-cyano-2,2-dimethyl-butyl)-amino]-1-benzyl-2-hydroxy-propyl}-carbamic acid[1,3]dioxan-5-yl ester], at HIV-1 protease, the Ki is less than 1 nM. The IC50 in the assay on HIV-1 (strain IIIB) (setting [1]) was not above 100 nM.

Turning to `CNc1cccc(S(=O)(=O)N(C[C@@H](O)[C@H](Cc2ccccc2)NC(=O)O[C@H]2CO[C@H]3OCC[C@H]32)CC(C)(C)CCCN)c1` [Compound 258, (3R,3aS,6aR)hexahydrofuro[2,3-b]furan-3-yl N-[(1S,2R)-3-((5-amino-2,2-dimethylpentyl)[3-(methylamino)phenyl]sulfonylamino)-1-benzyl-2-hydroxypropyl]carbamate], the Ki on HIV-1 protease is less than 1 nM. The half-maximal inhibitory concentration (IC50) with HIV-1 (strain IIIB) (setting [1]) lay in the range of 100 to 500 nM.

Take `CC(=O)Nc1cccc(S(=O)(=O)N(C[C@@H](O)[C@H](Cc2ccccc2)NC(=O)O[C@H]2CO[C@H]3OCC[C@H]32)CC(C)(C)CCC#N)c1` [Compound 31, {(1S,2R)-3-[(3-Acetylamino-benzenesulfonyl)-(4-cyano-2,2-dimethyl-butyl)-amino]-1-benzyl-2-hydroxy-propyl}-carbamic acid (3R,3aS,6aR)hexahydro-furo[2,3-b]furan-3-yl ester]: at HIV-1 protease, the Ki is less than 1 nM. For the same compound, the IC50 in the assay with HIV-1 (strain IIIB) (setting [1]) is not above 100 nM.

In the case of `COC(=O)NCCCC(C)(C)CN(C[C@@H](O)[C@H](Cc1ccccc1)NC(=O)O[C@H]1CO[C@H]2OCC[C@H]21)S(=O)(=O)c1ccc2c(c1)OCCO2` [Compound 265, (3R,3aS,6aR)hexahydrofuro[2,3-b]furan-3-yl N-[(1S,2R)-1-benzyl-3-((2,3-dihydro-1,4-benzodioxin-6-ylsulfonyl)5-[(methoxycarbonyl)amino]-2,2-dimethylpentylamino)-2-hydroxypropyl]carbamate], on HIV-1 protease, the Ki is less than 1 nM. In the assay on HIV-1 (strain IIIB) (setting [1]), the IC50 is not above 100 nM.

`COc1ccc(S(=O)(=O)N(CCC(C)=O)C[C@@H](O)[C@H](Cc2ccccc2)NC(=O)OC2COCOC2)cc1` [Compound 281]: the Ki at HIV-1 protease lay within 1 to 10 nM. The IC50 with HIV-1 (strain IIIB) (setting [1]) was 100 to 500 nM.

With `CC(=O)CCC(C)(C)CN(CC(O)[C@H](Cc1ccccc1)NC(=O)OC1COC2OCCC12)S(=O)(=O)c1cccc(N)c1` (some centres unmarked) [Compound 253], the Ki at HIV-1 protease was less than 1 nM. Further, in the assay with HIV-1 (strain IIIB) (setting [1]), the IC50 was not above 100 nM.

Take `CCOC(=O)NCCC(C)(C)CN(CC(O)C(Cc1ccccc1)NC(=O)OC1COC2OCCC12)S(=O)(=O)c1ccc(OC)cc1` [Compound 226, (3R,3aS,6aR)hexahydrofuro[2,3-b]furan-3-yl N-((1S,2R)-1-benzyl-3-4-[(ethoxycarbonyl)amino]-2,2-dimethylbutyl[(4-methoxyphenyl)sulfonyl]amino-2-hydroxypropyl)carbamate and (3S,3aR,6aS)hexahydrofuro[2,3-b]furan-3-yl N-((1S,2R)-1-benzyl-3-4-[(ethoxycarbonyl)amino)-2,2-dimethylbutyl[(4-methoxyphenyl)sulfonyl]amino-2-hydroxypropyl)carbamate]: the Ki at HIV-1 protease is less than 1 nM. For the same compound, the IC50 in the assay on HIV-1 (strain IIIB) (setting [1]) is not above 100 nM.

`COc1ccc(S(=O)(=O)N(CC(C)CCC#N)CC(O)C(Cc2ccccc2)NC(=O)OC(C)(C)C)cc1` [Compound 2, ter-Butyl N-((1S,2R)-1-benzyl-3-[(2RS)-(4-cyano-2-methylbutyl)][(4-methoxyphenyl)sulfonyl]amino-2-hydroxypropyl)carbamate]: the Ki at HIV-1 protease was less than 1 nM. For the same compound, in the assay on HIV-1 (strain IIIB) (setting [1]), the IC50 was more than 1000 nM.

As for `COc1ccc(S(=O)(=O)N(CC(C)CCC#N)CC(O)C(Cc2ccccc2)NC(=O)OC2CCOC2)cc1` [Compound 8, (3S)-Tetrahydro-3-furanyl N-((1S,2R)-1-benzyl-3-[(2RS)-4-cyano-2-methyl][(4-methoxyphenyl)sulfonyl]amino-2-hydroxypropyl)carbamate], the Ki at HIV-1 protease is less than 1 nM. In addition, in the assay on HIV-1 (strain IIIB) (setting [1]), the IC50 is not above 100 nM.
